Laboratory results published in patent EP1171107B1, “USE OF A PHARMACEUTICAL COMPOSITION IN THE MANUFACTURE OF A MEDICAMENT FOR THE TREATMENT OF PATHOLOGICAL CONDITIONS OF THE EYE CAUSED BY BACTERIA, VIRUSES, FUNGI, YEASTS AND PROTOZOA” (Dr. GERHARD MANN chem.-pharm. Fabrik GmbH, priority 1999, dated 2000).
Structures can show the parent of a compound that is named as a salt.

How the values were obtained:
H.influenzae = assay: Qualitative examination: enrichment of the inoculated test preparation in broth; format: cell-based
How it was run: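 Test preparations (5 ml) inoculated with ~10^5 CFU/ml; after 2, 6, 8, 24, 32, 48 and 72 h, centrifuged, washed and resuspended in NaCl-peptone buffer. 2 ml enriched in 20 ml Caso broth (Fildes medium for H. influenzae), incubated up to 4 days at 33±2°C; negative enrichment indicates elimination of inoculum.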

Alle Testkeime = assay: Overall assessment: time until all test germs are eliminated (count and enrichment); format: cell-based; settings: time after inoculation; all six test germs
Description: Escherichia (E.coli) Staphylococcus (S.aureus) Streptococcus (Sc.) Pneumoniae Pseudomonas (P.aeruginosa) Staphylococcus (S. epidermidis) Haemophilus (H. influenzae)
Die verschiedenen Testsubstanzen a. bis j. wurden jeweils zu 5 ml in sterile Zentrifugenröhrchen abgefüllt und mit ca. 10^5 KBE^*/ml (* = koloniebildende Einheiten) der oben genannten Testkeime kontaminiert. Pro Substanz wurde für jeden Testkeim und jede zu prüfende Testzeit ein separater Ansatz angeimpft, d.h.10 Testsubstanzen zu jeweils 7 Testzeiten und 6 Testkeime (= insgesamt 502 Testansätze). Nach 2, 6, 8, 24, 32, 48 und 72 Stunden wurde dann der jeweilige Testansatz 10 Minuten bei 3000 rpm abzentrifugiert. Der Überstand wurde dekantiert und das Pellet in 5 ml NaCl Peptonpuffer aufgenommen und resuspendiert. Die Suspension wurde erneut 10 Minuten bei 3000 rpm abzentrifugiert und 5 ml NaCl-Peptonpuffer aufgenommen und mittels Vortex homogenisiert.
Die anschließende Keimzahlbestimmung erfolgte im Oberflächenverfahren durch Ausspiralisieren eines 10011 Aliquots auf Caso-Agar bzw. für H. influenzae auf Kochblut-Agar. Die Platten wurden bei 33±2°C für max. 4 Tage bebrütet. Die Nachweisgrenze des Verfahrens liegt bei 100 KBE/ml.
Jeweils 2 ml der Testansätze wurden in 20 ml Caso-Bouillon oder für H. influenzae, in Fildes-Medium der Firma Becton Dickinson, ARt. […]

Compound	Ergebnis der Reisolierung qualitiativ (+/-) nach Anreicherung (H.influenzae; 2 h after inoculation)	Ergebnis der Reisolierung qualitiativ (+/-) nach Anreicherung (H.influenzae; 4 h after inoculation)	Ergebnis der Reisolierung qualitiativ (+/-) nach Anreicherung (H.influenzae; 6 h after inoculation)	Ergebnis der Reisolierung qualitiativ (+/-) nach Anreicherung (H.influenzae; 8 h after inoculation)	Ergebnis der Reisolierung qualitiativ (+/-) nach Anreicherung (H.influenzae; 24 h after inoculation)	Ergebnis der Reisolierung qualitiativ (+/-) nach Anreicherung (H.influenzae; 32 h after inoculation)	Ergebnis der Reisolierung qualitiativ (+/-) nach Anreicherung (H.influenzae; 48 h after inoculation)	Ergebnis der Reisolierung qualitiativ (+/-) nach Anreicherung (H.influenzae; 72 h after inoculation)	Testkeime nach Inokulation der Zubereitung auch qualitativ nicht mehr nachweisbar (Alle Testkeime)
CCCCCCCCCCCC[N+](C)(C)Cc1ccccc1 [Benzalkoniumchlorid 0,005 Gew.-%, Benzododeciniumchlorid]	-	-	-	-	-	-	-	-	
O=C(O)c1cn(C2CC2)c2cc(N3CCNCC3)c(F)cc2c1=O [Ciprofloxacin HCl 0,35 Gew.-%, Ciprofloxacin HCl, reference compound]	-	-	-	-	-	-	-	-	
CC1COc2c(N3CCN(C)CC3)c(F)cc3c(=O)c(C(=O)O)cn1c23 (stereo not shown) [Ofloxacin 0,3 Gew.-%, Ofloxacin, reference compound]	-	-	-	-	-	-	-	-	24 Stunden
Benzalkoniumchlorid [Benzalkoniumchlorid 0,001 Gew.-%]	-	-	-	-	-	-	-	-	
Benzalkoniumchlorid [Benzalkoniumchlorid 0,006 Gew.-%]	-	-	-	-	-	-	-	-	
Benzalkoniumchlorid [Benzalkoniumchlorid 0,0025 Gew.-%]	-	-	-	-	-	-	-	-	
